# Results as given in patent publication US11590139B2, “Substituted aminopurine compounds, compositions thereof, and methods of treatment therewith” (Signal Pharmaceuticals, LLC, priority 2014, dated 2023).
# System: Lox-IMVI melanoma cell line
# Assay: Lox-IMVI anti-proliferative assay (growth inhibition, Cell Titer-Glo)
# Assay type: cell-based, human
# Conditions: Homo sapiens; IC50 activity level in the cell-based Lox-IMVI anti-proliferative assay; read-out: Activity
# In short: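 Growth inhibition is assessed over 72 h in RPMI + 10% FBS at 0.2% DMSO, with ATP-based luminescence used as the viability measure. IC50 is fitted from normalized dose-response data.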
row,IC50,Structure (SMILES)
1,< 250 nM,"N#Cc1cc(Cl)c(Nc2nc3cnc(NC4CCOCC4)nc3n2[C@H]2CC[C@@H](C(N)=O)CC2)c(Cl)c1 [Example 278, (1s,4s)-4-(8-(2,6-dichloro-4-cyanophenylamino)-2-(tetrahydro-2H-pyran-4-ylamino)-9H-purin-9-yl)cyclohexanecarboxamide]"
2,500 to 1000 nM,"NC(=O)[C@H]1CC[C@@H](n2c(Nc3c(Cl)cc(Cl)cc3Cl)nc3cnc(N[C@H]4CCC[C@@H](O)C4)nc32)CC1 [Example 373, (1R,4s)-4-(2-((1S,3R)-3-hydroxycyclohexylamino)-8-(2,4,6-trichlorophenylamino)-9H-purin-9-yl)cyclohexanecarboxamide]"
3,> 1000 nM,"NC(=O)[C@H]1CC[C@@H](n2c(Nc3c(F)cc(F)cc3F)nc3cnc(N[C@@H]4CCC[C@H](O)C4)nc32)CC1 [Example 347, (1S,4s)-4-(2-((1R,3S)-3-hydroxycyclohexylamino)-8-(2,4,6-trifluorophenylamino)-9H-purin-9-yl)cyclohexanecarboxamide]"
4,> 1000 nM,"CCC(C)Nc1ncc2nc(Nc3c(F)ccc(Cl)c3F)n([C@H]3CC[C@@H](C(N)=O)CC3)c2n1 (stereo partly drawn) [Example 340, (1R,4s)-4-(2-(sec-butylamino)-8-(3-chloro-2,6-difluorophenylamino)-9H-purin-9-yl)cyclohexanecarboxamide]"
5,> 1000 nM,"CC1(C)CC[C@@H](Nc2ncc3nc(Nc4c(Cl)cccc4Cl)n([C@H]4CC[C@@H](C(N)=O)CC4)c3n2)C[C@H]1O [Example 383, (1S,4s)-4-(8-(2,6-dichlorophenylamino)-2-((1R,3R)-3-hydroxy-4,4-dimethylcyclohexylamino)-9H-purin-9-yl)cyclohexanecarboxamide]"
6,> 1000 nM,"NC(=O)[C@H]1CC[C@@H](n2c(Nc3c(Cl)cc(Cl)cc3Cl)nc3cnc(N[C@H]4C[C@@H](O)C4)nc32)CC1 [Example 323, (1s,4s)-4-(2-((1s,3s)-3-hydroxycyclobutylamino)-8-(2,4,6-trichlorophenylamino)-9H-purin-9-yl)cyclohexanecarboxamide]"

# The remaining lines, values behind:
row,Structure (SMILES),IC50
1,"NC(=O)[C@H]1CC[C@@H](n2c(Nc3c(F)cccc3F)nc3cnc(NC4CC(F)(F)C4)nc32)CC1 [Example 227, (1s,4s)-4-(2-(3,3-difluorocyclobutylamino)-8-(2,6-difluorophenylamino)-9H-purin-9-yl)cyclohexanecarboxamide]",> 1000 nM
2,"CC(C)Nc1ncc2nc(Nc3c(Cl)cc(Cl)cc3Cl)n([C@H]3CC[C@@H](C(N)=O)CC3)c2n1 [Example 59, (1s,4s)-4-(2-(isopropylamino)-8-(2,4,6-trichlorophenylamino)-9H-purin-9-yl)cyclohexanecarboxamide]",500 to 1000 nM
3,"Cc1cc(F)cc(F)c1Nc1nc2cnc(NC3CCOCC3)nc2n1[C@H]1CC[C@@H](C(N)=O)CC1 [Example 86, (1s,4s)-4-(8-(2,4-difluoro-6-methylphenylamino)-2-(tetrahydro-2H-pyran-4-ylamino)-9H-purin-9-yl)cyclohexanecarboxamide]",> 1000 nM
4,"NC(=O)[C@H]1CC[C@@H](n2c(Nc3c(Cl)cc(Cl)cc3Cl)nc3cnc(N[C@@H]4CCOC[C@H]4F)nc32)CC1 [Example 274, (1S,4s)-4-(2-((3S,4R)-3-fluorotetrahydro-2H-pyran-4-ylamino)-8-(2,4,6-trichlorophenylamino)-9H-purin-9-yl)cyclohexanecarboxamide]",< 250 nM
5,"NC(=O)[C@H]1CC[C@@H](n2c(Nc3c(F)cccc3F)nc3cnc(N[C@@H]4CC[C@@H](O)C4)nc32)CC1 [Example 209, (1S,4s)-4-(8-(2,6-difluorophenylamino)-2-((1R,3R)-3-hydroxycyclopentylamino)-9H-purin-9-yl)cyclohexanecarboxamide]",> 1000 nM
6,"NC(=O)[C@H]1CC[C@@H](n2c(Nc3c(F)cc(F)cc3Cl)nc3cnc(N[C@@H]4CCC[C@H]4O)nc32)CC1 [Example 252, (1S,4s)-4-(8-(2-chloro-4,6-difluorophenylamino)-2-((1R,2R)-2-hydroxycyclopentylamino)-9H-purin-9-yl)cyclohexanecarboxamide]",> 1000 nM
7,"NC(=O)[C@H]1CC[C@@H](n2c(Nc3c(Cl)cc(F)cc3Cl)nc3cnc(N[C@@H]4CCC[C@H]4O)nc32)CC1 [Example 256, (1S,4s)-4-(8-(2,6-dichloro-4-fluorophenylamino)-2-((1R,2R)-2-hydroxycyclopentylamino)-9H-purin-9-yl)cyclohexanecarboxamide]",> 1000 nM
8,"NC(=O)[C@H]1CC[C@@H](n2c(Nc3ccccc3Cl)nc3cnc(NC4CCCC4)nc32)CC1 [Example 93, (1s,4s)-4-(8-(2-chlorophenylamino)-2-(cyclopentylamino)-9H-purin-9-yl)cyclohexanecarboxamide]",> 1000 nM
9,"Cc1cccc(Nc2nc3cnc(NC4CCOCC4)nc3n2[C@H]2CC[C@@H](C(N)=O)CC2)c1Cl [Example 69, (1s,4s)-4-(8-(2-chloro-3-methylphenylamino)-2-(tetrahydro-2H-pyran-4-ylamino)-9H-purin-9-yl)cyclohexanecarboxamide]",> 1000 nM
10,"NC(=O)[C@H]1CC[C@@H](n2c(Nc3c(F)ccc(F)c3F)nc3cnc(NC4CC(F)(F)C4)nc32)CC1 [Example 233, (1s,4s)-4-(2-(3,3-difluorocyclobutylamino)-8-(2,3,6-trifluorophenylamino)-9H-purin-9-yl)cyclohexanecarboxamide]",500 to 1000 nM
11,"NC(=O)[C@H]1CC[C@@H](n2c(Nc3c(F)cccc3Cl)nc3cnc(NC4CCN(c5cccnc5)CC4)nc32)CC1 [Example 107, (1s,4s)-4-(8-(2-chloro-6-fluorophenylamino)-2-(1-(pyridin-3-yl)piperidin-4-ylamino)-9H-purin-9-yl)cyclohexanecarboxamide]",> 1000 nM
12,"CC(=O)N1CCC(Nc2ncc3nc(Nc4c(F)cc(Cl)cc4Cl)n([C@H]4CC[C@@H](C(N)=O)CC4)c3n2)CC1 [Example 198, (1s,4s)-4-(2-(1-acetylpiperidin-4-ylamino)-8-(2,4-dichloro-6-fluorophenylamino)-9H-purin-9-yl)cyclohexanecarboxamide]",> 1000 nM

# Same assay, conditions: Homo sapiens; Lox-IMVI anti-proliferative assay, IC50 activity level; read-out: Activity
row,IC50,Structure (SMILES)
1,< 250 nM,"C[C@@H]1COCC[C@H]1Nc1ncc2nc(Nc3c(F)cc(Cl)cc3Cl)n([C@H]3CC[C@@H](C(N)=O)CC3)c2n1 [Example 503, (1S,4s)-4-(8-(2,4-dichloro-6-fluorophenylamino)-2-((3S,4R)-3-methyltetrahydro-2H-pyran-4-ylamino)-9H-purin-9-yl)cyclohexanecarboxamide]"
2,< 250 nM,"C[C@@H]1COCC[C@H]1Nc1ncc2nc(Nc3c(F)cc(F)cc3F)n([C@H]3CC[C@@H](C(N)=O)CC3)c2n1 [Example 533, (1S,4s)-4-(2-((3S,4R)-3-methyltetrahydro-2H-pyran-4-ylamino)-8-(2,4,6-trifluorophenylamino)-9H-purin-9-yl)cyclohexanecarboxamide]"
3,> 1000 nM,"C[C@]1(C(N)=O)CC[C@H](n2c(Nc3c(Cl)cc(Cl)cc3Cl)nc3cnc(NC4CCCC4)nc32)CC1 [Example 490, (1r,4r)-4-(2-(cyclopentylamino)-8-(2,4,6-trichlorophenylamino)-9H-purin-9-yl)-1-methylcyclohexanecarboxamide]"
4,< 250 nM,"C[C@]1(C(N)=O)CC[C@@H](n2c(Nc3c(F)cc(F)cc3F)nc3cnc(NC4CCCC4)nc32)CC1 [Example 556, (1s,4s)-4-(2-(cyclopentylamino)-8-(2,4,6-trifluorophenylamino)-9H-purin-9-yl)-1-methylcyclohexanecarboxamide]"
5,> 1000 nM,"N#Cc1cc(F)c(Nc2nc3cnc(N[C@H]4CCCC[C@H]4O)nc3n2[C@H]2CC[C@@H](C(N)=O)CC2)c(Cl)c1 [Example 517, (1R,4s)-4-(8-(2-chloro-4-cyano-6-fluorophenylamino)-2-((1S,2R)-2-hydroxycyclohexylamino)-9H-purin-9-yl)cyclohexanecarboxamide]"
6,> 1000 nM,"NC(=O)[C@H]1CC[C@@H](n2c(Nc3c(Cl)cc(C(F)(F)F)cc3Cl)nc3cnc(NC4CC5(COC5)C4)nc32)CC1 [Example 570, (1s,4s)-4-(2-(2-oxaspiro[3.3]heptan-6-ylamino)-8-(2,6-dichloro-4-(trifluoromethyl)phenylamino)-9H-purin-9-yl)cyclohexanecarboxamide]"

# Same assay, conditions: Homo sapiens; Lox-IMVI melanoma cell line, anti-proliferative assay; read-out: Activity (IC50 activity level)
row,IC50,Structure (SMILES)
1,< 250 nM,"NC(=O)[C@H]1CC[C@@H](n2c(Nc3c(F)cc(Cl)cc3F)nc3cnc(N[C@H]4CCOC[C@H]4F)nc32)CC1 [Example 672, (1R,4s)-4-(8-(4-chloro-2,6-difluorophenylamino)-2-((3S,4S)-3-fluorotetrahydro-2H-pyran-4-ylamino)-9H-purin-9-yl)cyclohexanecarboxamide]"
2,< 250 nM,"N#Cc1cc(Cl)c(Nc2nc3cnc(N[C@@H]4CCOC[C@H]4F)nc3n2[C@H]2CC[C@@H](C(N)=O)CC2)c(Cl)c1 [Example 762, (1S,4s)-4-(8-(2,6-dichloro-4-cyanophenylamino)-2-((3S,4R)-3-fluorotetrahydro-2H-pyran-4-ylamino)-9H-purin-9-yl)cyclohexanecarboxamide]"
3,< 250 nM,"C[C@@H]1COCC[C@H]1Nc1ncc2nc(Nc3c(F)cc(F)cc3Cl)n([C@H]3CC[C@@](C)(C(N)=O)CC3)c2n1 [Example 725, (1S,4s)-4-(8-(2-chloro-4,6-difluorophenylamino)-2-((3S,4R)-3-methyltetrahydro-2H-pyran-4-ylamino)-9H-purin-9-yl)-1-methylcyclohexanecarboxamide]"
4,> 1000 nM,"Cc1ccc(S(=O)(=O)N2CCC[C@@H](Nc3ncc4nc(Nc5c(Cl)cc(C#N)cc5Cl)n([C@H]5CC[C@@H](C(N)=O)CC5)c4n3)C2)cc1 [Example 789, (1S,4s)-4-(8-(2,6-dichloro-4-cyanophenylamino)-2-((R)-1-tosylpiperidin-3-ylamino)-9H-purin-9-yl)cyclohexanecarboxamide]"
5,> 1000 nM,"NC(=O)[C@H]1CC[C@@H](n2c(Nc3c(Cl)cc(F)cc3Cl)nc3cnc(NC[C@@H]4CCCC[C@@H]4O)nc32)CC1 [Example 656, (1R,4s)-4-(8-(2,6-dichloro-4-fluorophenylamino)-2-(((1S,2S)-2-hydroxycyclohexyl)methylamino)-9H-purin-9-yl)cyclohexanecarboxamide]"
